For 10 compounds, GI50 and TGI results are on record in PubChem BioAssay (NCI).

Test systems include OVCAR-3 ovarian; UACC-62 melanoma; A498 renal; UACC-257 melanoma; ACHN renal; RPMI-8226 leukemia; SW-620 colon; HS 578T breast; SK-MEL-5 melanoma; HT29 colon.
What all share (test): NCI tumour cell line growth inhibition, 48 h

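Values below derive from 48-hour exposures of cells grown in 96-well plates, with endpoints linearly interpolated between the two concentrations bracketing the appropriate inhibition level. The concentration for 50% growth inhibition is given as GI50. TGI is the concentration that stops growth completely.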

For `COc1ccc(C2=NN(C=O)C(c3ccc(OS(=O)(=O)c4ccc(C)cc4)c(OC)c3)C2)cc1` (stereo not drawn), the GI50 with OVCAR-3 ovarian is 5.6 µM; in the assay with UACC-62 melanoma, 3.73 µM; with A498 renal, 1.81 µM; with UACC-257 melanoma, 4.22 µM; with ACHN renal, 10.1 µM; with RPMI-8226 leukemia, 4.12 µM. Further, the GI50 was 5.31 µM in the assay with SW-620 colon and 5.66 µM with HS 578T breast. In addition, the TGI in the assay with OVCAR-3 ovarian, with UACC-62 melanoma, with A498 renal, with UACC-257 melanoma, with ACHN renal and in the assay with RPMI-8226 leukemia was more than 100 µM throughout. The TGI is more than 100 µM in the assay on SW-620 colon and 88.3 µM in the assay with HS 578T breast.

As to `c1ccc(COCC[P+](c2ccccc2)(c2ccccc2)c2ccccc2)cc1`, the GI50 in the assay with SK-MEL-5 melanoma was 0.396 µM; in the assay on HT29 colon it was 0.478 µM; in the assay on OVCAR-3 ovarian it was 1.07 µM; in the assay with A498 renal it was 1.33 µM; in the assay on UACC-257 melanoma it was 0.378 µM; in the assay with ACHN renal, 4.56 µM. For the same compound, the GI50 is 0.242 µM with RPMI-8226 leukemia, 1.83 µM in the assay with SW-620 colon and 2.81 µM in the assay on HS 578T breast. Also, the TGI in the assay with SK-MEL-5 melanoma worked out at 1.61 µM; with HT29 colon it was 8.3 µM; with OVCAR-3 ovarian, 17.8 µM; with A498 renal it was 5.93 µM; in the assay on UACC-257 melanoma, 3.77 µM; with ACHN renal it was 23.5 µM. Moreover, the results for the TGI with RPMI-8226 leukemia, with SW-620 colon and in the assay on HS 578T breast were 1.9 µM, 37.7 µM and 17.9 µM, respectively.

Turning to `CC(=O)N(C)c1cc(NCc2ccccc2)ccc1OCc1ccccc1`, the TGI was 33.8 µM in the assay with SK-MEL-5 melanoma; 43 µM with HT29 colon; 32.8 µM with OVCAR-3 ovarian; 31.8 µM with UACC-62 melanoma; 30.8 µM in the assay with A498 renal; 31.1 µM in the assay with UACC-257 melanoma. Further, the values for the TGI in the assay on ACHN renal, in the assay on SW-620 colon and with HS 578T breast were 36.5 µM, 56.5 µM and 91 µM, respectively.

`CCCCOC(=O)/C=C\C(=O)NC(N)=O`: the GI50 is 24.3 µM in the assay with SK-MEL-5 melanoma; 13 µM in the assay on OVCAR-3 ovarian; 15.3 µM with UACC-62 melanoma; 29.3 µM in the assay with A498 renal; 21 µM in the assay with UACC-257 melanoma; 15.3 µM in the assay with ACHN renal. Moreover, the GI50 is 7.88 µM in the assay on RPMI-8226 leukemia, 14.5 µM with SW-620 colon and 23.5 µM in the assay on HS 578T breast. Also, the TGI in the assay with SK-MEL-5 melanoma worked out at 71.4 µM; in the assay on OVCAR-3 ovarian, 26.2 µM; with UACC-62 melanoma, 30.1 µM; with A498 renal it was 78.1 µM; with UACC-257 melanoma, 56.7 µM; in the assay on ACHN renal, 30.3 µM. Further, the results for the TGI in the assay on RPMI-8226 leukemia, in the assay with SW-620 colon and in the assay with HS 578T breast were 28.9 µM, 32.3 µM and more than 100 µM, respectively.

Regarding `COc1cccc(CCNC(=O)CC(c2ccccc2)(c2ccccc2)c2ccccc2)c1`, the GI50 was 4.84 µM in the assay with SK-MEL-5 melanoma; 4.77 µM with OVCAR-3 ovarian; 0.613 µM in the assay on UACC-62 melanoma; 7.84 µM in the assay with ACHN renal; 4.98 µM in the assay on RPMI-8226 leukemia; 85.3 µM with SW-620 colon. The GI50 in the assay on HS 578T breast was more than 100 µM. Besides, the TGI is more than 100 µM in the assay with SK-MEL-5 melanoma; more than 100 µM in the assay on OVCAR-3 ovarian; more than 100 µM in the assay with UACC-62 melanoma; 94.8 µM in the assay on ACHN renal; more than 100 µM in the assay with RPMI-8226 leukemia; more than 100 µM with SW-620 colon. In the assay with HS 578T breast, the TGI was more than 100 µM.

On to `COc1ccc(CN2C(=O)/C(=C\C(=O)c3ccc(OCCN4CCCC4)cc3)c3ccccc32)cc1`, for which the GI50 was 16.2 µM in the assay on SK-MEL-5 melanoma; 1.8 µM in the assay with OVCAR-3 ovarian; 1.84 µM in the assay on UACC-62 melanoma; 18.1 µM in the assay on A498 renal; 20.2 µM with UACC-257 melanoma; 1.66 µM in the assay on ACHN renal. Also, the GI50 with RPMI-8226 leukemia is 2.54 µM; in the assay with HS 578T breast, 14.3 µM. Besides, the TGI with SK-MEL-5 melanoma was found to be 38.8 µM; in the assay on OVCAR-3 ovarian, 3.48 µM; in the assay on UACC-62 melanoma, 3.38 µM; in the assay with A498 renal, 38.7 µM; in the assay on UACC-257 melanoma it was 40.3 µM; in the assay with ACHN renal it was 3.02 µM. Also, the TGI with RPMI-8226 leukemia was determined as 6.29 µM; with HS 578T breast it was 54.6 µM.

Take `C/C=C(\C)c1cc(=O)c2c(C)cc3c(c2o1)C(OC)(OC(C)=O)c1c(O)c(C2CC(C)(N(C)C)C(OC(C)=O)C(C)O2)cc(C2CC(N(C)C)C(OC(C)=O)C(C)O2)c1C3=O` (stereo not drawn): the TGI in the assay with SK-MEL-5 melanoma was more than 100 µM; in the assay on HT29 colon it was more than 20.4 µM; with OVCAR-3 ovarian it was more than 41.8 µM; in the assay with A498 renal it was 3.49 µM; in the assay on ACHN renal, 1.52 µM; in the assay on SW-620 colon, 4.94 µM. This compound also had a TGI in the assay on HS 578T breast of 7.63 µM.

With `CC(=O)OC1CC2C(C)(C)CCC[C@]2(C)C2=C1C(O)=C(C(C)C)C(=O)C2=O` (stereo partly drawn), the GI50 in the assay with SK-MEL-5 melanoma is 0.174 µM; with OVCAR-3 ovarian, 1.52 µM; with UACC-62 melanoma it was 0.323 µM; in the assay on A498 renal, 0.402 µM; in the assay with UACC-257 melanoma it was 0.932 µM; in the assay on ACHN renal, 0.465 µM. In addition, the GI50 is 0.466 µM in the assay on RPMI-8226 leukemia, 0.911 µM in the assay on SW-620 colon and 0.532 µM in the assay on HS 578T breast. Moreover, the TGI amounted to 0.343 µM with SK-MEL-5 melanoma; 4.53 µM in the assay on OVCAR-3 ovarian; 1.42 µM in the assay on UACC-62 melanoma; 1.79 µM in the assay on A498 renal; 3 µM in the assay on UACC-257 melanoma; 1.66 µM with ACHN renal. Moreover, the values for the TGI with RPMI-8226 leukemia, in the assay on SW-620 colon and in the assay with HS 578T breast were 4.08 µM, 2.92 µM and more than 20.4 µM, respectively.

As to `CCOC(=O)C1=C(C)NC(C)=C(C(=O)OCCNC(=O)c2ccc(N=[N+]=[N-])cc2)C1c1ccccc1C(F)(F)F` (stereo not drawn), the TGI in the assay on SK-MEL-5 melanoma was 12.7 µM; in the assay with HT29 colon it was 21.5 µM; with OVCAR-3 ovarian, 21.5 µM; with UACC-62 melanoma, 21.5 µM; with UACC-257 melanoma it was 21.5 µM; in the assay with ACHN renal it was 21.5 µM. For the same compound, the TGI in the assay with RPMI-8226 leukemia worked out at 18.9 µM; in the assay on SW-620 colon, 21.5 µM; in the assay with HS 578T breast it was 21.5 µM.

As for `C=C1C(=O)O[C@@H]2C[C@@H]1CC[C@]1(C)O[C@H]1CC/C(C)=C/CC[C@@]2(C)O`, the GI50 was 24.3 µM in the assay on SK-MEL-5 melanoma; 15.4 µM with HT29 colon; 23.1 µM with OVCAR-3 ovarian; 17.5 µM with UACC-62 melanoma; 23.3 µM with A498 renal; 11.3 µM in the assay with UACC-257 melanoma. Moreover, the GI50 in the assay with RPMI-8226 leukemia is 6.58 µM; in the assay on SW-620 colon, 15.8 µM; in the assay on HS 578T breast it was 21.7 µM. In addition, the TGI is 52.7 µM with SK-MEL-5 melanoma; 31.7 µM in the assay on HT29 colon; 64.1 µM in the assay with OVCAR-3 ovarian; 36.4 µM in the assay on UACC-62 melanoma; 74.5 µM with A498 renal; 31.8 µM in the assay with UACC-257 melanoma. In addition, the TGI in the assay on RPMI-8226 leukemia is more than 100 µM; in the assay with SW-620 colon it was 33.7 µM; with HS 578T breast, 68.5 µM.
